Series [1] in a line: solubility of the crystal form. In kind it is physicochemical. The settings on record: compared to prior known forms of the API.
Series [2] is described as follows: bioavailability of the crystal form. Format: in vivo. The note with it: compared to prior known forms of the API.
The conditions of series [3]: background statement; cited from earlier work.

As to `CC(=O)NC[C@H]1CN(c2ccc(N3Cc4cn(C)nc4C3)c(F)c2)C(=O)O1.O=C(O)CC(=O)O` [Form α crystal], the solubility result in series [1] is listed as “improved”. Moreover, the bioavailability entry in series [2] is on record as “improved”.
Turning to `CC(=O)NC[C@H]1CN(c2ccc(N3Cc4cn(C)nc4C3)c(F)c2)C(=O)O1` [N-[[(5S)-3-[4-(2,6-dihydro-2-methylpyrrolo[3,4-c]pyrazol-5(4H)-yl)-3-fluorophenyl]-2-oxo-5-oxazolidinyl]methyl]acetamide], the bioavailability in humans entry in series [3] is “poor”.

The values are drawn from patent publication US20080091026A1, “NOVEL CRYSTAL OF N-[[(5S)-3-[4-(2,6-DIHYDRO-2-METHYLPYRROLO[3,4-C]PYRAZOL-5(4H)-YL)-3-FLUOROPHENYL]-2-OXO-5-OXAZOLIDINYL]METHYL]ACETAMIDE” (TRANSFORM PHARMACEUTICALS, INC., priority 2006, published 2008).
